{"source": "patent US11815448B2", "about": "“Method, reagent, and chip for measuring analyte concentration in specimen” (TERUMO KABUSHIKI KAISHA, priority 2018, dated 2023)", "assay": "Evaluation of maximum absorption wavelength (λmax)", "format": "physicochemical", "protocol": "A 10 mM MOPS aqueous solution is added so that the final concentrations of the respective formazan compounds are 50 to […] to prepare 100 μL of each sample. Separately, a 1M nickel ion aqueous solution is prepared. To 100 μL of the sample, 10 μL of the 1M nickel ion aqueous solution is added, and the mixture is rapidly stirred to prepare a mixed solution. The spectrum of the mixed solution is measured with a spectrophotometer (measurement cell length: 10 mm) (n=1). Based on each spectrum, the maximum absorption wavelength (λmax) (nm) of each compound in formazan is determined.\nDiethyl ether was added to the reaction solution obtained in 3. above to precipitate the tetrazolium compound 1. The precipitate was centrifuged, and the supernatant was removed, followed by washing with diethyl ether. The obtained precipitate was dried in a draft to obtain tetrazolium compound 1 (120 mg, yield: 11.8% by mass). The maximum absorption wavelength (λmax) of the tetrazolium compound 1 thus obtained was measured and found to be 630 nm.", "note": "Structures can show the parent of a compound that is named as a salt.", "data": [{"compound": "COc1ccc2nc(-n3nc(-c4ccc(S(=O)(=O)O)cc4S(=O)(=O)[O-])n[n+]3-c3ccc(OC)c(S(=O)(=O)O)c3)sc2c1", "note": "[tetrazolium compound 1, 2-(6-methoxybenzothiazolyl)-3-(3-sulfo-4-methoxy-phenyl)-5-(2,4-disulfophenyl)-2H-tetrazolium salt]", "values": [{"measurement": "maximum absorption wavelength (λmax)", "result": 630, "unit": "nm"}]}]}
